From patent US8940897B2, “1,3,4-oxadiazole and 1,3,4-thiadiazole β-lactamase inhibitors” (priority 2012, dated 2015)
Structures can show the parent of a compound that is named as a salt.

Legend:
[1] = system: bacterial strains that express the class D cephalosporinase OXA-15; assay: Synergy MIC / standard BLI potentiation MIC assay, strains expressing OXA-15;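 also: more active means a lower MIC or sMIC than Avibactam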; assay type: cell-based, E. coli; details: in the presence of a β-lactam; comparator Avibactam (CCC)
How it was run: (§1)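 CLSI broth microdilution in CAMHB, ~10^5 CFU/mL, 18–20 h at 37 °C with aeration; engineered E. coli kept on 25 μg/mL tetracycline. Potentiation: β-lactam 128–0.13 μg/mL with BLI fixed at 4 μg/mL; synergy MIC: BLI serially diluted with fixed β-lactam. MIC is the lowest concentration without visible turbidity.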

[2] = system: bacterial strains that express KPC β-lactamases; assay: Synergy MIC / standard BLI potentiation MIC assay, strains expressing KPC β-lactamases; assay type: cell-based; details: for at least one KPC strain and/or a better spectrum of activity against KPC strains than Avibactam; in the presence of a β-lactam
How it was run: as §1

SMILES	activity against bacterial strains that express OXA-15 β-lactamase compared with Avibactam [1]	activity against bacterial strains that express KPC β-lactamase compared with Avibactam [2]
O=C1N2C[C@@H](CC[C@H]2c2nnc([C@H]3CCNC3)o2)N1OS(=O)(=O)O [Compound 758, (2S,5R)-7-oxo-2-(5-((S)-pyrrolidin-3-yl)-1,3,4-oxadiazol-2-yl)-1,6-diazabicyclo[3.2.1]octan-6-yl hydrogen sulfate]	more active than Avibactam	more active than Avibactam
O=C1N2C[C@@H](CC[C@H]2c2nnco2)N1OS(=O)(=O)O [Compound 701, (2S,5R)-2-(1,3,4-oxadiazol-2-yl)-7-oxo-1,6-diazabicyclo[3.2.1]octan-6-yl hydrogen sulfate]	more active than Avibactam	more active than Avibactam
N[C@H]1C[C@H](c2nnc([C@@H]3CC[C@@H]4CN3C(=O)N4OS(=O)(=O)O)o2)C1 [Compound 727, (2S,5R)-2-(5-((1r,3S)-3-aminocyclobutyl)-1,3,4-oxadiazol-2-yl)-7-oxo-1,6-diazabicyclo[3.2.1]octan-6-yl hydrogen sulfate]	more active than Avibactam	more active than Avibactam
